Values joined by “and” are separate entries in the source; they are usually repeats but may differ in a detail not shown here. Equal entries are not always repeated. Where two headings read alike, the source gives them in different places.
How the values were obtained:
onion = assay: High temperature stress resistance of onion via allantoin application (Experiment 2); type: in vivo, onion (variety: Neoearth); conditions: for viability 3 days after the heat shock treatment: 1 mM allantoin 40 ml/pot 6 days after sowing
Method: (§1) A 5-cm polypot was mounted on a balance dish BD-2 (AS ONE Corporation), 70 ml of vermiculite (Protoleaf Inc.) was introduced thereinto, 80 ml of culture soil (TAKII & CO., LTD.) was further introduced thereinto, 3 seeds of onion (variety: Neoearth; TAKII & CO., LTD.) were sowed at 3 positions, and 20 ml of vermiculite was further introduced thereinto, so as to cover the soil. Thereafter, 50 ml of tap water was supplied to the balance dish two times. The polypot (together with the balance dish) was mounted on a bat, and the resultant was then introduced into an incubator at 22° C. and 10,000 Lux for a light period of 12 hours and a dark period of 12 hours, so as to initiate cultivation. The day on which cultivation was initiated was designated as Day 0 after sowing. Germination was observed 5 days after sowing. While leaving 3 plants in each pot (i.e., a plant in each position), other plants were removed therefrom 6 days after sowing.
Tap water or an aqueous solution of 1 mM allantoin was applied to each test group (40 ml/pot) 6 days after sowing (hereafter, referred to as the “water treatment group” or the “allantoin treatment group,” respectively). Tap water was applied to all the pots (40 ml/pot) 11 days after sowing. The pots mounted on the bats were introduced into the incubator 13 days after sowing (at the 2-true-leaf stage in the case of onions), and the plants were exposed to high temperature stress at 45° C. for 1 hour, 1.5 hours, and 2 hours. Soil in the pots was sufficiently humidified before and after high temperature stress application. After the completion of the high temperature stress treatment, the temperature in the incubator was cooled to 22° C., and cultivation was continued. Water was supplied 2 days after the heat shock treatment (40 ml/pot). Thereafter, water was supplied in an amount of 40 ml per pot at intervals of 2 days.
(§2) The “viability” indicates the proportion of the number of survived plants relative to the number of plants subjected to the heat shock treatment. The viability was calculated by regarding plants that would no longer grow (i.e., the plants with the youngest leaves suffering from physical damage, such as whitening, withering, or curling of leaves) as plants that are not survived.

rice = rice seeds immersed in 300 mg/L allantoin solution for 24 hours; cited from earlier work
rice (Koshihikari) = assay: Leaf Area Index of rice in paddy field after allantoin application to seedlings (Experiment 9); type: in vivo; conditions: for LAI (Leaf Area Index): 1 mM allantoin 3 L per nursery box on Day 26 after sowing, two plant bodies
Method: A 1 mM allantoin aqueous solution or water was applied in an amount of 3 L each to the seedlings of rice (Koshihikari) on Day 26 after sowing (the size of a nursery box: 280×580×28 (mm) (depth×width×height)). A total of the applied dose of allantoin per unit area, which was applied for a single application in Experiment 9, was 3.0 g/m^2 (1.05 g/m^2 relative to allantoin nitrogen) in the 1 mM allantoin group.
Twelve hours after the application, the seedlings were planted in a paddy field, and were then allowed to grow for 55 days and for 63 days. Thereafter, using a leaf area measurement apparatus LAI-2200 (MEIWAFOSIS CO., LTD.), Leaf Area Index (LAI) which indicates the leaf area under conditions in which the plant still grows in the field, was non-destructively measured. LAI was obtained from two plant bodies in each of the allantoin group and the water group (n=2).

[1] = test system: DREB2A (AGI code: AT5G05410); assay: DREB2A gene expression, quantitative PCR, cultivation in allantoin-containing medium (Experiment 5); type: in vivo, Arabidopsis thaliana; conditions: 1 mM allantoin in ½ MS solid medium, 14 days, leaves and stems, reference gene ACT2
Method: (§3) Seeds of wild-type Arabidopsis thaliana line (Columbia-0) were sterilized in 2.5% (v/v) sodium hypochlorite, sowed in the ½ MS solid medium described in Experiment 1 (Table 1) (the medium was supplemented with 1 mM allantoin; allantoin was not added to the control group: a deep petri dish with a diameter of 90 mm and a height of 20 mm), and then allowed to grow under long-day conditions (in an incubator at 5,000 Lux, a light period of 16 hours and a dark period of 8 hours, 22° C.) for 14 days. Using a commercialized kit, RNA extraction from leaves and stems of Arabidopsis thaliana (NucleoSpin RNAII, MACHEREY-NAGEL), reverse transcription (ReverTra Ace qPCR RT Master Mix, TOYOBO), and quantitative PCR (KAPA SYBR FAST qPCR Master Mix, KAPABIOSYSTEMS) were carried out. As a reference gene, ACT2 (AGI code: AT3G18780) was used. As a result, the relative expression level of DREB2A (AGI code: AT5G05410; SEQ ID NO: 1) and that of HSF3 (AGI code: AT5G16820; SEQ ID NO: 2) were 2.2 times and […] greater than the expression level of the control group, respectively.

creeping bentgrass [2] = type: in vivo, creeping bentgrass (variety: 007); conditions: 1 mM allantoin 40 ml/pot on Days 7, 10 and 13; measured Day 13 after sowing; mean of 20 grasses per pot
Method: (§4) A polypot with 5 cm each side was placed on a balance dish BD-2 (AS ONE Corporation), and 120 ml of joint- and bed-soil for turf grass (TACHIKAWA HEIWA NOUEN CO., LTD.) was then added into the pot. Thereafter, 140 mg of seeds of creeping bentgrass (variety: 007, Power Shop FUJI) was seeded on the soil, and 3 ml of the soil was further added onto the seeds. Thereafter, 10 ml of tap water was supplied to the balance dish. The polypot (together with the balance dish) was placed on a tray, and was then placed in an artificial climate chamber having a temperature of 20° C., a light intensity of 300 μmol/m^2/s, a light period of 16 hours, a dark period of 8 hours, and a humidity of 70%, and thereafter, cultivation was initiated. The day on which cultivation was initiated was defined as Day 0 after sowing. On Day 2 after sowing, 40 ml/pot tap water was applied to all pots. On Day 5 after sowing, germination was confirmed.
On Days 7, 10 and 13 after sowing, tap water (hereinafter referred to as a “water group”) or a 1 mM allantoin aqueous solution (hereinafter referred to as an “allantoin group”) was applied, in an amount of 40 ml/pot, to individual experiment groups. […]
On Day 13 after sowing, 20 turf grasses were selected from each pot, and the grass height and fresh weight of each grass were then measured. Based on the measured values, a mean value was calculated. […]

[3] = test system: HSF3 (AGI code: AT5G16820); assay: HSF3 gene expression, quantitative PCR, cultivation in allantoin-containing medium (Experiment 5); type: in vivo, Arabidopsis thaliana; conditions: 1 mM allantoin in ½ MS solid medium, 14 days, leaves and stems, reference gene ACT2
Method: as §3

Arabidopsis thaliana [4] = conditions: application of allantoin to Arabidopsis thaliana; cited from earlier work
[5] = test system: wild-type Arabidopsis thaliana; conditions: allantoin administered to wild-type Arabidopsis thaliana; cited from earlier work
creeping bentgrass [6] = type: in vivo, creeping bentgrass (variety: 007); conditions: measured Day 15
Method: as §4
On Days 6, 11 and 13 after sowing, tap water (hereinafter referred to as a “water group”) or a 0.5 or 1 mM allantoin aqueous solution (hereinafter referred to as an “allantoin group”) was applied, in an amount of 40 ml/pot, to individual experiment groups. On and after Day 13 after sowing, a difference was found in the growth of turf glasses among individual groups. On Day 15, 20 turf grasses were selected from each pot, and the grass height and fresh weight of each grass were then measured. Based on the measured values, a mean value was calculated.

[7] = test system: Brassica chinensis komatsuna; assay: High temperature stress resistance of Brassica chinensis komatsuna via allantoin application (Experiment 3); type: in vivo, Brassica chinensis komatsuna (variety: Rakuten); conditions: 1 mM allantoin 40 ml/pot 6 and 13 days after sowing, 45° C. for 1 hour
Method: as §1, with “Brassica chinensis komatsuna” for “onion”, “Rakuten,” for “Neoearth;”, “the center of the pot,” for “3 positions,”, “bat” for “bat,”, “and” for “and the resultant was then”, “sowing.” for “sowing. Germination was observed 5 days after sowing. While leaving 3 plants in each pot (i.e., a plant in each position), other plants were removed therefrom 6 days after sowing.”
Germination was observed 3 days after sowing. While leaving one plant in each pot, other plants were removed therefrom 6 days after sowing. […]
as §2

Arabidopsis thaliana [8] = assay: High temperature stress resistance of Arabidopsis thaliana cultivated in allantoin-containing medium (Experiment 6); type: in vivo; conditions: 10 μM, 100 μM or 1,000 μM allantoin in ½ MS solid medium; 45° C. 105 minutes; grown 1 week
Method: The wild-type (WT) line of Arabidopsis thaliana (L.) Heynh., accession Columbia-0 described in Experiment 1 was used.
The ½ MS solid medium described in Experiment 1 (Table 1) was used (10 μM, 100 μM, or 1,000 μM allantoin was further added to the allantoin-supplemented group, allantoin was not added to the allantoin-free group, a deep sterilized petri dish No. 903 VALMARK; Ina-Optika Corporation).
(5) In the petri dish, a circular accommodation part (a plane view) is divided into 2 semicircular compartments by a partition wall extended toward a diametrical direction. The allantoin-free ½ MS solid medium was accommodated in one of the compartments of the petri dish, the allantoin-supplemented ½ MS solid medium was accommodated in another compartment, and 15 seeds were sowed in each compartment (i.e., 30 seeds in total per petri dish) (FIG. 5A).
(8) The resultant was transferred to a culture chamber and cultured therein at 22° C. under long-day conditions (light application for 16 hours under fluorescent light: 0.07 mmol photons […] s^−1) for 7 days. […]
(10) Thereafter, the petri dish was cooled in an incubator at 23° C. for 10 to 15 minutes, and the plants were then allowed to grow again for 1 week under the conditions (8). […] The viability was evaluated on the basis of such phenomenon. […]

[9] = 0.5 mM allantoin 40 ml/pot on Days 6, 11 and 13
[10] = 1 mM allantoin 40 ml/pot on Days 6, 11 and 13

NC(=O)NC1NC(=O)NC1=O (racemic) [Allantoin]
viability 3 days after the heat shock treatment (onion; 45° C. for 1 hour): 66.7% | viability 3 days after the heat shock treatment (onion; 45° C. for 1.5 hours): 33.3% | viability 3 days after the heat shock treatment (onion; 45° C. for 2 hours): 11.1% | viability 8 days after heat shock treatment (onion; 1 mM allantoin, 45° C. for 1, 1.5 and 2 hours, compared with 3 days): same viability | height of the seedlings, number of roots and fresh weight of the seedlings versus water control (rice): increased | LAI (Leaf Area Index) (rice (Koshihikari); 55th day in paddy field): 1.94 m^2/m^2 and 2.04 m^2/m^2 | LAI (Leaf Area Index) (rice (Koshihikari); 63rd day in paddy field): 2.71 m^2/m^2 and 2.82 m^2/m^2 | LAI smaller than the LAI of the water group (rice (Koshihikari); 55th day): approximately 25% | LAI smaller than the LAI of the water group (rice (Koshihikari); 63rd day): approximately 10% | relative expression level of DREB2A versus control group [1]: 2.2 times | Fresh weight (creeping bentgrass [2]): 2.9 mg | Grass height (creeping bentgrass [2]): 5.6 cm | relative expression level of HSF3 versus control group [3]: 0.7 times | plant growth (Arabidopsis thaliana [4]): promoted | production of abscisic acid [5]: promoted | Fresh weight (creeping bentgrass [6]; [9]): 3 mg | Grass height (creeping bentgrass [6]; [9]): 5.8 cm | Fresh weight (creeping bentgrass [6]; [10]): 3.1 mg | Grass height (creeping bentgrass [6]; [10]): 5.9 cm | viability 7 days after the heat shock treatment [7]: 100% | resistance to high temperature stress (viability) (Arabidopsis thaliana [8]): has resistance to high temperature stress
